For orientation: melting point means the temperature, or range, at which the solid turns liquid.

Structures are written as SMILES.

This note sets out measurements from patent US6677371B1, “4-oxybenzopyran derivative” (Nissan Chemical Industries, Ltd., priority 1999, dated 2004).

`CC(=O)Nc1cc2c(cc1[N+](=O)[O-])OC(C)(C)[C@@H](O)[C@@H]2OCCc1ccccc1` (relative stereo) [Synthesis example 2, Trans-6-acetylamino-3,4-dihydro-2,2-dimethyl-7-nitro-4-(2-phenylethoxy)-2H-1-benzopyran-3-ol] had a melting point of 123.5 to 127 °C.
